Results as given in article PMC12951562, “SH2scan: Mapping SH2 Domain-Ligand Binding Selectivity for Inhibitors and Degraders” (Journal of Medicinal Chemistry, 2026).
Read-outs that look alike come from different tables or passages of the source. Non-standard residues stand in square brackets, D forms with d. Residues, ends and D or L forms follow the SMILES beside them. *: point of attachment. pY = N[C@@H](Cc1ccc(OP(=O)(O)O)cc1)C(=O)O; Caffeoyl = O=C(/C=C/c1ccc(O)c(O)c1)*

Assays:
Assay in all cases: biochemical
Format in all cases: binding
TNS3 = molecular target: T1, TNS3 (Homo sapiens, UniProt Q68CZ2); settings: for remaining activity at 10 µM: read-out: percent of DMSO vehicle control
T1 construct: made in house; host or cells: HEK293 (transient transfection), unpurified extract
T1 sequence (Q68CZ2 1-1445): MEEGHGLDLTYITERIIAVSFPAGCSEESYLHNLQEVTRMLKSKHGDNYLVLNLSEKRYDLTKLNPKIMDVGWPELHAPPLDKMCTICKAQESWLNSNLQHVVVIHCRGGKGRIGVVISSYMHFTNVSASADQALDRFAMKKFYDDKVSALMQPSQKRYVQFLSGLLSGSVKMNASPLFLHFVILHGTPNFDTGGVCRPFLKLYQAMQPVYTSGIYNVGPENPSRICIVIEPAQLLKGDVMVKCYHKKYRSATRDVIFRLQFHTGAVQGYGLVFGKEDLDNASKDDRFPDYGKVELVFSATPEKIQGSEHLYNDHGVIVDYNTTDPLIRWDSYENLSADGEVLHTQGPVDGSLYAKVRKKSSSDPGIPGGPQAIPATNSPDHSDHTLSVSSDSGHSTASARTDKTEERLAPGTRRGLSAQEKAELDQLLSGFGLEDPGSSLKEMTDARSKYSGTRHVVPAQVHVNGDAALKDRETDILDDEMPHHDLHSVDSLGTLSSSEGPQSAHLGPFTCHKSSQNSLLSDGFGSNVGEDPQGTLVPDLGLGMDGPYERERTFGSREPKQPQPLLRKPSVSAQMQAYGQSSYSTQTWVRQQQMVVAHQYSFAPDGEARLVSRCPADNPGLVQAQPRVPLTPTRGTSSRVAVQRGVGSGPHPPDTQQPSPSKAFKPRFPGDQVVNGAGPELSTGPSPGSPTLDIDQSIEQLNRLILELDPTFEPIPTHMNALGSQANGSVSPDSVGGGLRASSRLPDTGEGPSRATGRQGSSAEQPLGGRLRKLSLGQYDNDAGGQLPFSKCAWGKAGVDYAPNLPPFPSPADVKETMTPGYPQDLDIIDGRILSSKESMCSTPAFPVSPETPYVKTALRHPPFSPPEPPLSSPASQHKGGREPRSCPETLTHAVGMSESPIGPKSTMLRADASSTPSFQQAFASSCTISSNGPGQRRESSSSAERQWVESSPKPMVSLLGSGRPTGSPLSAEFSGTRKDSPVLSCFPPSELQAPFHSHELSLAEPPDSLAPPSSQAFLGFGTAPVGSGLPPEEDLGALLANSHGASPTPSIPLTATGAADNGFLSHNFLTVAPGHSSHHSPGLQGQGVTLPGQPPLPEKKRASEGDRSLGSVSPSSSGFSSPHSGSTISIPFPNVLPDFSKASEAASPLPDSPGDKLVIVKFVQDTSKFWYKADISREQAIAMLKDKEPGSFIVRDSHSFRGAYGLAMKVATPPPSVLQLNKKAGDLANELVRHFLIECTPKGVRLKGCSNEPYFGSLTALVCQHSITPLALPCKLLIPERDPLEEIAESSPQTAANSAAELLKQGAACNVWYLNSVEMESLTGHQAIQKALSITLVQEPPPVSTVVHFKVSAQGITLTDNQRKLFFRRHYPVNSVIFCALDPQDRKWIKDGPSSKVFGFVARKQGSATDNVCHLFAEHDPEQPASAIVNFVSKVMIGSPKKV

PIK3R2(SH2dom.C-term.) = molecular target: T2, PIK3R2(SH2dom.C-term.) (Homo sapiens, UniProt O00459); settings: for KD / Kd: dose-response; for remaining activity at 10 µM: read-out: percent of DMSO vehicle control; for Kd: read-out: KD
T2 construct: SH2dom.C-term. denotes SH2 domain closest to C-terminus of protein; made in house; host or cells: HEK293 (transient transfection, unpurified extract)
T2 sequence (O00459 622-716 limits assumed): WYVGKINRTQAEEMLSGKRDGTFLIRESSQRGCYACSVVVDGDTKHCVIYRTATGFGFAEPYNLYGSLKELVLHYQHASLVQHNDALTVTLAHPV

ABL1 = molecular target: T3, ABL1 (Homo sapiens, UniProt P00519); settings: for percent of DMSO control binding at 10 µM / remaining activity at 10 µM: read-out: percent of DMSO vehicle control; for KD: dose-response
T3 construct: the DNA-tagged SH2 domain concentrations used in this study were <0.1 nM; made in house; host or cells: HEK293 (transient transfection; unpurified extract)
T3 sequence (P00519 127-217 limits assumed): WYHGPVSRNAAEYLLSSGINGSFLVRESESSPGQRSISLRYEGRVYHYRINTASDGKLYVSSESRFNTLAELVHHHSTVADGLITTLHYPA

STAT6 = molecular target: T4, STAT6 (Homo sapiens, UniProt P42226); settings: for percent of DMSO vehicle control at 10 µM / remaining activity at 10 µM: read-out: percent of DMSO vehicle control
T4 construct: made in house; host or cells: HEK293 (transient transfection), unpurified extract
T4 sequence (P42226 1-847): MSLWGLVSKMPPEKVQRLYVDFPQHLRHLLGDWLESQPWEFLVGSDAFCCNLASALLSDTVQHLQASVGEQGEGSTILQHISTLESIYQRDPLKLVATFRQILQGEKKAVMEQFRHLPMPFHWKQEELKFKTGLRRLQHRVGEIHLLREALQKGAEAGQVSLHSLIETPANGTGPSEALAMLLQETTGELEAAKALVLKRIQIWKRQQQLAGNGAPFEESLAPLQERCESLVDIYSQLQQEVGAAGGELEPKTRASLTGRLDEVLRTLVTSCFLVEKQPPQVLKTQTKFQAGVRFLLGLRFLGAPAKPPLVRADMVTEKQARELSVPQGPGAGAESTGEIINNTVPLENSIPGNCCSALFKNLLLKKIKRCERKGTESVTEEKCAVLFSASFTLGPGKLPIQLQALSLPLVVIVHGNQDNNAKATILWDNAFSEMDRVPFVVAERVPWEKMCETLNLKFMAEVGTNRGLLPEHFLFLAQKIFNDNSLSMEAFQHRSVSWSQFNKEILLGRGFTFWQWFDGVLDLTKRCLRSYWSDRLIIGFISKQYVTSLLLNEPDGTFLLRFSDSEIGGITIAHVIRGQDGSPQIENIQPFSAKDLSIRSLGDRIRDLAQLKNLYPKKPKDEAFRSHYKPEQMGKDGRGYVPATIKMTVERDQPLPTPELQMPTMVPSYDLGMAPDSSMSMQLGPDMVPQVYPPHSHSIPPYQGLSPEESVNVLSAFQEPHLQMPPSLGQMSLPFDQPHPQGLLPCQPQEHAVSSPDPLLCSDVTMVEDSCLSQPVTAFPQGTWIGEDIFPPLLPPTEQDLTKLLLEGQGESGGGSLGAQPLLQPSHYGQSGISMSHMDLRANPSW

SMILES | Kd (TNS3) [nM] | KD (PIK3R2(SH2dom.C-term.)) | remaining activity at 10 µM (PIK3R2(SH2dom.C-term.)) [%] | remaining activity at 10 µM (TNS3) [%] | percent of DMSO control binding at 10 µM (ABL1) [%] | percent of DMSO vehicle control at 10 µM (STAT6) [%] | remaining activity at 10 µM (PIK3R2(SH2dom.C-term.); primary screen, 10 μM) [%] | remaining activity at 10 µM (TNS3; primary screen, 10 μM) [%] | remaining activity at 10 µM (ABL1; primary screen, 10 μM) [%] | remaining activity at 10 µM (STAT6; primary screen, 10 μM) [%] | KD (ABL1) | Kd (STAT6; dose-response, read-out: KD) [nM] | other results
CC[C@H](C)[C@H](NC(=O)[C@H](CO)NC(=O)[C@H](CC(C)C)NC(=O)[C@H](CCCNC(=N)N)NC(=O)[C@H](CO)NC(=O)[C@H](CS)NC(C)=O)C(=O)N[C@@H](Cc1ccc(OP(=O)(O)O)cc1)C(=O)N[C@@H](CC(=O)O)C(=O)N[C@@H](CC(N)=O)C(=O)N[C@H](C(=O)N1CCC[C@H]1C(=O)NCC(N)=O)C(C)C [Ac-CSRLSIpYDNVPG-NH2] (Ac-CSRLSI[pY]DNVPG-NH2) | 120 ± 28.9 |  |  |  |  |  |  |  |  |  |  |  | 
CC[C@H](C)[C@H](NC(=O)[C@H](CCC(=O)O)NC(=O)[C@H](CCC(=O)O)NC(=O)[C@H](Cc1ccc(OP(=O)(O)O)cc1)NC(C)=O)C(=O)N[C@@H](CCC(=O)O)C(N)=O [Ac-pYEEIE-NH2] (Ac-[pY]EEIE-NH2) |  |  |  |  |  |  |  |  |  |  |  |  | percent of DMSO vehicle control (PIK3R2(SH2dom.C-term.); primary screen, 10 μM): 49.5±7.1%; percent of DMSO vehicle control (TNS3; primary screen, 10 μM): 83.2±4.0%; percent of DMSO vehicle control (ABL1; primary screen, 10 μM): 106.1%; percent of DMSO vehicle control (STAT6; primary screen, 10 μM): 162.5%
CC(=O)N[C@@H](Cc1ccc(CP(=O)(O)O)cc1)C(=O)NC1(C(=O)N[C@@H](CC(N)=O)C(=O)NCCCc2c(O)ccc3ccccc23)CCCCC1 [CGP78850] | 620 | No Hit | 0.4 ± 0.4 | 9.8 ± 0.1 | 3.1 ± 1.7 | 104 ± 11 |  |  |  |  |  |  | Kd (ABL1): 560 ± 360 nM
CC[C@H](C)[C@H](NC(=O)[C@H](CCC(=O)O)NC(=O)[C@H](CCC(=O)O)NC(=O)[C@H](Cc1ccc(OP(=O)(O)O)cc1)NC(=O)/C=C/c1ccc(O)c(O)c1)C(=O)N[C@@H](CCC(=O)O)C(=O)O [Caffeic acid-pYEEIE] (Caffeoyl-[pY]EEIE-OH) | 1000 ± 210 | No Hit | 0.3 ± 0.9 | 1.8 ± 0.6 | 0 | 103 ± 16.9 |  |  |  |  |  |  | Kd (ABL1): 105 ± 17 nM
O=C(CCl)Nc1cccc(CNC(=O)[C@H](Cc2ccc(OP(=O)(O)O)cc2)NC(=O)Cc2ccc(F)cc2)c1 [MN551] |  | No Hit |  |  |  |  | 30.3 | 48.5 ± 7.3 | 35.7 ± 4.3 | 37.2 |  |  | 
NC(=O)CC[C@H](NC(=O)[C@@H]1CC[C@@H]2CCN(C(=O)CCCCCC#Cc3cccc4c3CN(C3CCC(=O)NC3=O)C4=O)C[C@H](NC(=O)c3cc4cc(C(F)(F)P(=O)(O)O)ccc4[nH]3)C(=O)N21)C(=O)NC(c1ccccc1)c1ccccc1 (stereo partly shown) [SD-36] |  | No Hit | 18.5 ± 3.9 | 57.6 ± 6 | 87.4 ± 24 | 4.2 ± 0.1 |  |  |  |  |  |  | Kd (STAT6; dose-response): 1070 ± 740 nM
CC(=O)N1CC[C@H]2CC[C@@H](C(=O)N[C@@H](CCC(N)=O)C(=O)NC(c3ccccc3)c3ccccc3)N2C(=O)[C@@H](NC(=O)c2cc3cc(C(F)(F)P(=O)(O)O)ccc3[nH]2)C1 [SI-109] |  |  | 120 | 128 | 132 | 44.5 ± 2.9 |  |  |  |  |  |  | Kd (STAT6): 1400 ± 0.15 nM
C/C(=C\C(=O)N[C@H](C(=O)N1CCC[C@H]1C(=O)N(c1ccccc1)c1ccc(I)cc1)C(C)(C)C)c1ccc(OP(=O)(O)O)cc1 [STAT6-IN-1] |  |  |  |  |  |  | 0.2 ± 0.1 | 57 ± 10.1 | 0 | 0 | No Hit | 0.68 | Kd (PIK3R2(SH2dom.C-term.)): 1000 ± 78 nM
CC(C)(C)[C@H](NC(=O)/C=C/c1ccc(OP(=O)(O)O)cc1)C(=O)N1CCC[C@H]1C(=O)N(c1ccccc1)c1ccc(I)cc1 [STAT6-IN-3] |  |  |  |  |  |  | 6.1 ± 1.6 | 55.6 ± 12.1 | 0 | 0 | No Hit | 8.6 | Kd (PIK3R2(SH2dom.C-term.)): 490 ± 80 nM
O=C(COc1ccc2cc(C(=O)Nc3ccccc3)ccc2c1)NCc1ccc(OP(=O)(O)O)c(OP(=O)(O)O)c1 [Stafib-1] |  |  |  |  |  |  | 84.2 ± 34.7 | 77.8 ± 9 | 19.9 | 18.2 | No Hit | 7300 ± 2300 | 
